This is an account of results in patent publication US10730826B2, “Ketone inhibitors of lysine gingipain” (CORTEXYME, INC., priority 2016, dated 2020).

In series [1] the target is lysine gingipain (Kgp) (Porphyromonas gingivalis (Bacteroides gingivalis), UniProt P72194). The series can be described thus: biochemical. The series is classed as biochemical. The conditions noted are these: IC50 (nM) Kgp. As for the experimental part:
(§1) The specific assay conditions were as follows. Buffer: pH=7.5, 100 mM Tris-HCl, 75 mM NaCl, 2.5 mM CaCl2), 10 mM cysteine, 1% DMSO after all additions. Protein: 0.1 nM Kgp, isolated from culture of Porphyromonas gingivalis, as described by Pike et al. (J. Biol. Chem. 1994, 269(1), 406), and Potempa and Nguyen (Current Protocols in Protein Science. 2007, 21.20.1-21.20.27). Fluorogenic substrate: 10 μM Z-His-Glu-Lys-MCA. Time=90 minutes. Temperature=37° C.
(§2) Further assays to measure the inhibitory activity of compounds of the present invention against Kgp and cathepsins B, H, K, L, and S were conducted as described in Example 66. The capacities of the compounds to inhibit the activity of cathepsins F, V, and Z were also measured.

Series [2] concerns the target Cathepsin L (Homo sapiens (Human), UniProt P07711). The series can be described thus: Cathepsin L inhibition assay. The class given is biochemical. Conditions: Table 3; read-out: IC50 (nM) CatL. How it is done:
(§3) The capacities of compounds of the present invention to inhibit the activity of cathepsins B, H, K, L, and S were measured in similar assays. Boc-Leu-Arg-Arg-AMC (20 μM) in sodium acetate buffer (50 mM, pH 5.5) containing DTT (1 mM) and EDTA (2 mM) was used for the Cathepsin B assay. L-Arg-AMC (20 μM) in sodium acetate buffer (50 mM, pH 5.5) containing DTT (1 mM) and EDTA (2 mM) was used for the Cathepsin H assay. Z-Phe-Arg-AMC (10 μM) in HEPES buffer (50 mM, pH 7.4) containing DTT (2.5 mM) and EDTA (1 mM) was used for the Cathepsin K assay. Z-Phe-Arg-AMC (20 μM) in sodium acetate buffer (50 mM, pH 5.5) containing DTT (1 mM) and EDTA (2 mM) was used for the Cathepsin L assay. Z-Leu-Arg-AMC (10 μM) in sodium acetate buffer (25 mM, pH 4.5) containing DTT (2.5 mM) and NaCl (50 mM) was used for the Cathepsin S assay. The capacities of the compounds to inhibit the activity of cathepsins F, V, and Z were also measured.
as §2

For series [3], the target named is Cathepsin B (Homo sapiens (Human), UniProt P07858). The series can be described thus: Cathepsin B inhibition assay. Conditions: Table 3; read-out: IC50 (nM) CatB. The series is classed as biochemical. As for the experimental part: as §3, §2
Series [4] has as its target Cathepsin S (Homo sapiens (Human), UniProt P25774). The series can be described thus: Cathepsin S inhibition assay. The class given is biochemical. Conditions: Table 3; read-out: IC50 (nM) CatS. As for the experimental part:
as §3, §2

Series [5] deals with Cathepsin K (Homo sapiens (Human), UniProt P43235). The series can be described thus: Cathepsin K inhibition assay. The series is classed as biochemical. The conditions noted are these: Table 3; read-out: IC50 (nM) CatK. As for the experimental part: as §3, §2
Series [6] addresses Cathepsin H (Homo sapiens (Human), UniProt P09668). The series can be described thus: Cathepsin H inhibition assay. The series is classed as biochemical. The conditions noted are these: Table 3; read-out: IC50 (nM) CatH. How it is done: as §3, §2
The subject of series [7] is lysine gingipain (Kgp). The experiment in a line: biochemical. Conditions: as compared to reference compound 73. The series is classed as biochemical, Porphyromonas gingivalis. As for the experimental part:
as §1, §2

A short description of series [8]: Pharmacokinetics in male CD-1 mice dosed p.o. The class given is in vivo. The conditions noted are these: p.o. 10 mg/kg, compared to reference compound 73.

Where only a bound is given, the exact number is not on record here.

A word on the IC50: it is the concentration that gives 50% inhibition. Consider `[N-]=[N+]=Nc1cccc(C(=O)NC(CCCCN)C(=O)COc2c(F)cccc2F)c1` (centres unmarked) [Compound 12a], for which, in series [1] (Table 3), the IC50 amounted to 0.08 nM.
Turning to `NCCCCC(NC(=O)c1cccnc1Br)C(=O)COc1c(F)cccc1F` (centres unmarked) [Compound 34a], it took 0.13 nM to reach half-maximal inhibition in series [1] (Table 4) (IC50).
For `NCCCCC(NC(=O)c1cccc(OCCF)c1)C(=O)COc1c(F)cccc1F` (centres unmarked) [Compound 27a], half-maximal inhibition in series [1] (Table 4) (IC50) required 0.27 nM.
In the case of `CSCC(=O)C(CCCCN)NC(=O)C1CCCC1` (centres unmarked) [Compound 16a], in series [1] (Table 3), the IC50 is more than 100 nM.
Regarding `NCCCC[C@H](NC(=O)C1CCCC1)C(=O)COc1c(F)ccc(F)c1F` (racemic) [1a - non-racemic], the IC50 in series [2] was 4680 nM; in series [3] it was 380 nM; in series [4] it was 29500 nM; in series [5] it was 170 nM; in series [6], 560 nM.
Take `NCCCC[C@H](NC(=O)C1CCCC1)C(=O)COc1cccc(F)c1` [Compound 7, (S)—N-(7-amino-1-(3-fluorophenoxy)-2-oxoheptan-3-yl)cyclopentanecarboxamide]: the “selectivity for Kgp over endogenous cathepsins” value in series [7] is “increased selectivity”.
Compound `NCCCCC(NC(=O)c1cccnc1)C(=O)COc1c(F)ccc(F)c1F` (centres unmarked) [Compound 42a] registered an IC50 in series [1] (Table 4) of 0.06 nM.
For `NCCCC[C@H](NC(=O)C1CCCC1)C(=O)COC(C(F)(F)F)C(F)(F)F` [Compound 18, (S)—N-(7-amino-1-((1,1,1,3,3,3-hexafluoropropan-2-yl)oxy)-2-oxoheptan-3-yl)cyclopentanecarboxamide], the “selectivity for Kgp over endogenous cathepsins” value in series [7] is “far more selective”.
In the case of `NCCCCC(NC(=O)C1CCCC1)C(=O)COc1ccccc1F` (centres unmarked) [Compound 3a], the IC50 is more than 100000 nM in series [2]; 0.64 nM in series [1] (Table 3); 52200 nM in series [3]; more than 100000 nM in series [4]; more than 100000 nM in series [5].
With `NCCCCC(NC(=O)c1cccnc1F)C(=O)COc1ccon1` (centres unmarked) [Compound 56a], the IC50 in series [1] (Table 4) came out at 0.1 nM.
On the same count and under the same terms, next, `COC(C)(C)C(=O)NC(CCCCN)C(=O)COc1ccon1` (centres unmarked) [Compound 57a]: 0.09 nM; `NCCCCC(NC(=O)c1cccnc1)C(=O)COc1c(F)cccc1F` (centres unmarked) [Compound 43a]: 0.09 nM.
`NCCCCC(NC(=O)c1cccc(F)n1)C(=O)COc1c(F)cccc1F` (centres unmarked) [Compound 28a]: in series [1] (Table 4), the IC50 came out at 0.34 nM.
Compound `CS(=O)(=O)CC(=O)C(CCCCN)NC(=O)C1CCCC1` (centres unmarked) [Compound 20a] returned a 50% inhibitory concentration (IC50) in series [1] (Table 3) of more than 100 nM.
Turning to `NCCCCC(NC(=O)C1CCCC1)C(=O)COc1cc(F)cc(F)c1` (centres unmarked) [Compound 8a], the IC50 was more than 100000 nM in series [2]; 0.34 nM in series [1] (Table 3); 68300 nM in series [3]; more than 100000 nM in series [4]; more than 100000 nM in series [5].
`NCCCCC(NC(=O)c1ccccc1)C(=O)C(F)F` (centres unmarked) [Compound 37a] showed an IC50 in series [1] (Table 4) of more than 100 nM.
For the compound `NCCCCC(NC(=O)C1CCCC1)C(=O)COCC(F)(F)F` (centres unmarked) [Compound 17a], the IC50 in series [1] (Table 3) was more than 100 nM.
With `NCCCCC(NC(=O)C1CCCC1)C(=O)COc1cc(F)cc(F)c1F` (centres unmarked) [Compound 4a], the IC50 in series [2] was more than 100000 nM; in series [1] (Table 3), 0.07 nM; in series [3], 2640 nM; in series [4], more than 100000 nM; in series [5], more than 100000 nM.
In series [1] (Table 4), `[N-]=[N+]=Nc1cccc(C(=O)NC(CCCCN)C(=O)COc2c(F)cccc2F)c1` (centres unmarked) [Compound 33a] returned an IC50 of 0.08 nM.
Take `NCCCC[C@H](NC(=O)C1CCCC1)C(=O)COc1ccon1` [Compound 49, (S)—N-(7-amino-1-(isoxazol-3-yloxy)-2-oxoheptan-3-yl)cyclopentanecarboxamide]: in series [8], the “concentrations in the brain and cerebrospinal fluid (CSF)” value is recorded as “reduced concentrations in the brain and/or cerebrospinal fluid”.
`CN(C)CC(=O)C(CCCCN)NC(=O)C1CCCC1` (centres unmarked) [Compound 19a] had an IC50 in series [1] (Table 3) of more than 100 nM.
As for `NCCCCC(NC(=O)c1ccc(F)nc1)C(=O)COc1c(F)cccc1F` (centres unmarked) [Compound 29a], the midpoint of inhibition in series [1] (Table 4), the IC50, lay at 0.31 nM.
